Assay results: the NIST ThermoML archive (doi:10.1016/j.jct.2006.10.016)
Where “and” joins values, the source holds several entries; their conditions need not be identical. Identical values can stand only once.

How the values were obtained:
[1] = 101 kPa, Liquid
[2] = xn = mol fraction of the nth substance listed; conditions: 101 kPa, Liquid

C[S+](C)[O-] [dimethyl sulfoxide]
[1]
Conditions	mass density	viscosity [mPa·s]
303.15 K	1090.7 kg/m3	1.832
308.15 K	1084.7 kg/m3	1.67
313.15 K	1082.3 kg/m3	1.537
318.15 K	1075.1 kg/m3	1.408
323.15 K	1070.1 kg/m3 and 1070 kg/m3	1.289

CCCO [propan-1-ol]
[1]
Conditions	mass density [kg/m3]	viscosity [mPa·s]
303.15 K	795.5	1.733
308.15 K	791.1	1.534
313.15 K	787	1.367
318.15 K	783.3	1.234
323.15 K	779.5	1.1

CC(C)O [propan-2-ol]
[1]
Conditions	mass density [kg/m3]	viscosity [mPa·s]
303.15 K	776.4	1.792
308.15 K	772.6	1.553
313.15 K	768.6	1.355
318.15 K	763.9	1.182
323.15 K	758.8	1.041

C[S+](C)[O-] [dimethyl sulfoxide] + CO
[2]
Conditions	mass density, 303.15 K [kg/m3]	mass density, 308.15 K [kg/m3]	mass density, 313.15 K [kg/m3]	mass density, 318.15 K [kg/m3]	mass density, 323.15 K [kg/m3]	viscosity, 303.15 K [mPa·s]	viscosity, 308.15 K [mPa·s]	viscosity, 313.15 K [mPa·s]	viscosity, 318.15 K [mPa·s]	viscosity, 323.15 K [mPa·s]
x1 = 0.0998	837.8	834.7	829.9	825.2	820.4	0.5976	0.5587	0.5228	0.4918	0.4582
x1 = 0.2004	886	882.3	877.3	872.2	867.1	0.678	0.6322	0.591	0.5532	0.5163
x1 = 0.3007	925	921	916.3	910.8	905.7	0.7684	0.7147	0.6694	0.6281	0.5857
x1 = 0.3998	959.3	955	950.7	944.7	939.6	0.8719	0.8091	0.7576	0.7073	0.6605
x1 = 0.4996	988.4	983.6	979.6	973.3	968.4	0.9887	0.9164	0.8549	0.7972	0.7426
x1 = 0.6008	1013.9	1009	1005.6	999.4	994.4	1.123	1.037	0.9676	0.9008	0.8357
x1 = 0.699	1035.3	1030.1	1026.9	1020.9	1016	1.272	1.172	1.09	1.012	0.9359
x1 = 0.8011	1055.5	1050.3	1047.7	1040.9	1036.3	1.442	1.326	1.226	1.131	1.045
x1 = 0.8997	1073.7	1068.3	1065.8	1059	1054	1.629	1.492	1.379	1.269	1.167
x1 = 1	1090.7	1084.7	1082.3	1075.1	1070.1	1.832	1.67	1.537	1.408	1.289

CO [methanol] + C[S+](C)[O-]
[2], x2 = 0
Conditions	mass density [kg/m3]	viscosity [mPa·s]
303.15 K	781.3	0.5178
308.15 K	778.2	0.4843
313.15 K	772.4	0.4515
318.15 K	767.8	0.4233
323.15 K	762.7	0.395

CC(C)O [propan-2-ol] + C[S+](C)[O-]
[2], x2 = 0
Conditions	mass density [kg/m3]	viscosity [mPa·s]
303.15 K	776.4	1.792
308.15 K	772.6	1.553
313.15 K	768.6	1.355
318.15 K	763.9	1.182
323.15 K	758.8	1.041

C[S+](C)[O-] [dimethyl sulfoxide] + CCO
[2]
Conditions	mass density, 303.15 K [kg/m3]	mass density, 308.15 K [kg/m3]	mass density, 313.15 K [kg/m3]	mass density, 318.15 K [kg/m3]	mass density, 323.15 K [kg/m3]	viscosity, 303.15 K [mPa·s]	viscosity, 308.15 K [mPa·s]	viscosity, 313.15 K [mPa·s]	viscosity, 318.15 K [mPa·s]	viscosity, 323.15 K [mPa·s]
x1 = 0.1008	836	831.6	827.6	822.8	818.1	1.244	1.122	1.025	0.9261	0.8551
x1 = 0.2004	870.1	865.6	861.7	856.7	852.1	1.205	1.096	0.9964	0.9126	0.8356
x1 = 0.2994	902.4	897.7	894	888.8	884	1.209	1.098	1.01	0.9262	0.8544
x1 = 0.4005	933.9	929	925.6	920.1	915.3	1.237	1.143	1.038	0.961	0.8876
x1 = 0.4995	963.3	958.2	955	949.2	944.4	1.282	1.179	1.086	1.004	0.9264
x1 = 0.6005	991.6	986.3	983.4	977.4	972.4	1.361	1.248	1.154	1.065	0.9847
x1 = 0.7012	1018.4	1013	1010.3	1004.1	999.3	1.464	1.34	1.234	1.139	1.05
x1 = 0.8011	1043.6	1038.3	1035.9	1029.5	1024.7	1.557	1.435	1.323	1.217	1.125
x1 = 0.8999	1067.5	1062.1	1059.8	1053.1	1048.4	1.658	1.517	1.393	1.289	1.183
x1 = 1	1090.7	1084.7	1082.3	1075.1	1070	1.832	1.67	1.537	1.408	1.289

C[S+](C)[O-] [dimethyl sulfoxide] + CC(C)O
[2]
Conditions	mass density, 303.15 K [kg/m3]	mass density, 308.15 K [kg/m3]	mass density, 313.15 K [kg/m3]	mass density, 318.15 K [kg/m3]	mass density, 323.15 K [kg/m3]	viscosity, 303.15 K [mPa·s]	viscosity, 308.15 K [mPa·s]	viscosity, 313.15 K [mPa·s]	viscosity, 318.15 K [mPa·s]	viscosity, 323.15 K [mPa·s]
x1 = 0.1001	806.4	802.2	798.2	793.2	787.9	1.525	1.352	1.2	1.078	0.9656
x1 = 0.2011	834.9	830.4	826	820.7	815.3	1.391	1.246	1.118	1.01	0.9102
x1 = 0.3005	865	860.4	856.3	850.6	845.2	1.306	1.18	1.078	0.9836	0.8887
x1 = 0.4007	895.8	891	887.1	881.3	875.8	1.335	1.209	1.103	1.011	0.9133
x1 = 0.4994	926.6	921.6	917.9	911.9	906.5	1.341	1.223	1.124	1.036	0.9383
x1 = 0.601	958.9	953.7	950	943.8	938.5	1.396	1.274	1.173	1.08	0.9843
x1 = 0.701	991.1	985.6	982.2	975.7	970.4	1.474	1.343	1.233	1.136	1.041
x1 = 0.7994	1023.3	1017.6	1014.5	1007.6	1002.3	1.55	1.41	1.31	1.198	1.108
x1 = 0.9005	1056.9	1051	1048.2	1041	1035.8	1.671	1.516	1.401	1.285	1.171
x1 = 1	1090.7	1084.7	1082.3	1075.1	1070	1.832	1.67	1.537	1.408	1.289
